Here are results for 20 compounds from patent US10562912B2 (C&C Research Laboratories, priority 2013, dated 2020).

Common to all, as to type: cell-based
Experiment [1] concerns the target T1, STAT3 (Homo sapiens, UniProt P40763).
T1 construct: plasmid pSTAT3-TA-luc), which contains a stably operating STAT3 promoter; endogenous in cells
The experiment can be described thus: STAT3 reporter gene assay (luciferase), LNCaP stable cell line (pSTAT3-TA-luc), IL-6 stimulation. Summed up: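 Cytotoxicity was run on a duplicate plate with CellTiter-Glo, while the other plate gave luciferase read-outs from lysed LNCaP pSTAT3-TA-luc reporter cells. Cells were treated with graded compound concentrations plus IL-6 (10 ng/mL final) for 24–48 h in 3% DCC-FBS medium. Unstimulated and stimulated wells served as negative and positive controls.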
In general terms: Reporter assays use an easily measured gene product as a stand-in for the process of interest.

The subject of experiment [2] is AGS. The experiment in a line: Cell growth inhibition assay, stomach cancer cell line AGS. As to conditions: Homo sapiens; AGS stomach cancer cell line, 3,000 cells/well.
The test system of experiment [3] is MDA-MB-231. The experiment in a line: Cell growth inhibition assay, breast cancer cell line MDA-MB-231. Particulars: Homo sapiens; MDA-MB-231 breast cancer cell line, 5,000 cells/well.
Experiment [4] has as its system LNCaP. The experiment in a line: Cell growth inhibition assay, prostate cancer cell line LNCaP (medium with 10 ng/mL IL-6). As to conditions: Homo sapiens, medium supplemented with 10 ng/mL of IL-6, 10,000 cells/well.

T1 sequence (P40763 whole entry): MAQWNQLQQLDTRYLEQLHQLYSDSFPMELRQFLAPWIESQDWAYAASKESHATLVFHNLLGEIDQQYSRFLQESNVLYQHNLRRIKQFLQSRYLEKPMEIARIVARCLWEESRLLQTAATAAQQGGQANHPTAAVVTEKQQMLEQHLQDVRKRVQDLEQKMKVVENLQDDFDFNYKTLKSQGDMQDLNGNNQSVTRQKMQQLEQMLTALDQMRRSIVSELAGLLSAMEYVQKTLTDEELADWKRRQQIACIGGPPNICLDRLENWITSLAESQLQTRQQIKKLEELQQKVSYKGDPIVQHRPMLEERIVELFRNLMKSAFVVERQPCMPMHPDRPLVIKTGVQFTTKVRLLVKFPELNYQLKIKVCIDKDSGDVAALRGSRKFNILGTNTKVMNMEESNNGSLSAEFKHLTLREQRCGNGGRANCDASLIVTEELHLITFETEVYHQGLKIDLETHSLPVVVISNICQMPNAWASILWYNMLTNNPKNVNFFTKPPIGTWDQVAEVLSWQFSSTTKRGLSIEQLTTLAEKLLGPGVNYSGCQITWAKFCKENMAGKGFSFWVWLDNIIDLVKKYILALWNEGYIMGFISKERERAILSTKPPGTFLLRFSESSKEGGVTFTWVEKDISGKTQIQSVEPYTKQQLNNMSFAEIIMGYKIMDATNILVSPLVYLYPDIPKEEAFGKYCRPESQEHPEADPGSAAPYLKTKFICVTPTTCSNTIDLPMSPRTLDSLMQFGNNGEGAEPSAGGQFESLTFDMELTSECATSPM

Regarding `CS(=O)(=O)Nc1ccc2c(C(=O)Nc3cccc(-c4ccc(F)cc4F)c3)c[nH]c2c1` [Example 275, N-(2′,4′-difluoro-[1,1′-biphenyl]-3-yl)-6-(methylsulfonamido)-1H-indole-3-carboxamide], the IC50 (usually the concentration at which inhibition is half-maximal) was 3.3 µM in experiment [1], 5.7 µM in experiment [2], above 10 µM in experiment [3] and 9 µM in experiment [4].

For the compound `CS(=O)(=O)Nc1ccc2cc(C(=O)Nc3cccc(-c4cccnc4C(F)(F)F)c3)[nH]c2c1` [Example 293, 6-(methylsulfonamido)-N-(3-(2-(trifluoromethyl)pyridin-3-yl)phenyl)-1H-indole-2-carboxamide], the IC50 in experiment [1] was 2.7 µM; in experiment [2], 24.6 µM; in experiment [3], 1 µM; in experiment [4], 4.6 µM.

In the case of `CS(=O)(=O)Nc1ccc2cc(C(=O)Nc3cc(C#N)cc(-c4ccc(F)cc4F)c3)[nH]c2c1` [Example 301, N-(5-cyano-2′,4′-difluoro-[1,1′-biphenyl]-3-yl)-6-(methylsulfonamido)-1H-indole-2-carboxamide], the IC50 in experiment [1] is 3.3 µM; in experiment [2] it was 5.7 µM; in experiment [3], 0.72 µM; in experiment [4], 3.9 µM.

Consider `CN(c1ccc2cc(C(=O)Nc3cc(Br)cc(-c4ccc(F)cc4F)c3)n(C)c2c1)S(C)(=O)=O` [Example 341, N-(5-bromo-2′,4′-difluoro-[1,1′-biphenyl]-3-yl)-1-methyl-6-(N-methylmethylsulfonamido)-1H-indole-2-carboxamide], for which the IC50 in experiment [1] is 3.3 µM; in experiment [2] it was 5.3 µM; in experiment [3] it was 7.5 µM; in experiment [4] it was 6.2 µM.

On to `CN(c1ccc2cc(C(=O)Nc3cc(Br)cc(-c4ccc(F)cc4F)c3)[nH]c2c1)S(C)(=O)=O` [Example 342, N-(5-bromo-2′,4′-difluoro-[1,1′-biphenyl]-3-yl)-6-(N-methylmethylsulfonamido)-1H-indole-2-carboxamide], for which the IC50 in experiment [1] was determined as 0.39 µM; in experiment [2], 9.6 µM; in experiment [3], 0.52 µM; in experiment [4] it was 5 µM.

`COc1cc(NC(=O)c2cc3ccc(N(C)S(C)(=O)=O)cc3[nH]2)cc(-c2ccc(F)cc2F)c1` [Example 347, N-(2′,4′-difluoro-5-methoxy-[1,1′-biphenyl]-3-yl)-6-(N-methylmethylsulfonamido)-1H-indole-2-carboxamide]: the half-inhibitory concentration (IC50) was 1.5 µM in experiment [1], 19.7 µM in experiment [2], 0.61 µM in experiment [3] and 7.9 µM in experiment [4].

Take `COc1cc(NC(=O)c2cc3ccc(N(C)S(C)(=O)=O)cc3n2C)cc(-c2ccc(F)cc2F)c1` [Example 348, N-(2′,4′-difluoro-5-methoxy-[1,1′-biphenyl]-3-yl)-1-methyl-6-(N-methylmethylsulfonamido)-1H-indole-2-carboxamide]: the 50% inhibitory concentration (IC50) is above 10 µM in experiment [1], 4.8 µM in experiment [2], above 10 µM in experiment [3] and 7.2 µM in experiment [4].

On to `CS(=O)(=O)Nc1ccc2cc(C(=O)Nc3cc(OCC(F)F)cc(-c4ccc(F)cc4F)c3)[nH]c2c1` [Example 366, N-(5-(2,2-difluoroethoxy)-2′,4′-difluoro-[1,1′-biphenyl]-3-yl)-6-(methylsulfonamido)-1H-indole-2-carboxamide], for which the IC50 in experiment [1] worked out at 1.2 µM; in experiment [2], 8.9 µM; in experiment [3], 0.58 µM; in experiment [4], 6.2 µM.

On to `CC(C)COc1cc(NC(=O)c2cc3ccc(NS(C)(=O)=O)cc3[nH]2)cc(-c2ccc(F)cc2F)c1` [Example 367, N-(2′,4′-difluoro-5-isobutoxy-[1,1′-biphenyl]-3-yl)-6-(methylsulfonamido)-1H-indole-2-carboxamide], for which the IC50 in experiment [1] amounted to 0.38 µM; in experiment [2], 9.5 µM; in experiment [3], 1.1 µM; in experiment [4], 7.4 µM.

Turning to `CS(=O)(=O)Nc1ccc2cc(C(=O)Nc3cc(OCC#N)cc(-c4ccc(F)cc4F)c3)[nH]c2c1` [Example 368, N-(5-(cyanomethoxy)-2′,4′-difluoro-[1,1′-biphenyl]-3-yl)-6-(methylsulfonamido)-1H-indole-2-carboxamide], the IC50 in experiment [1] was determined as 2.7 µM; in experiment [2], 11.5 µM; in experiment [3], 1.7 µM; in experiment [4] it was 9.8 µM.

On to `CS(=O)(=O)Nc1ccc2cc(C(=O)Nc3cccc(C(F)(F)c4cccc(C#N)c4)c3)[nH]c2c1` [Example 390, N-(3-((3-cyanophenyl)difluoromethyl)phenyl)-6-(methylsulfonamido)-1H-indole-2-carboxamide], for which the IC50 in experiment [1] amounted to 3.7 µM; in experiment [2], 9.6 µM; in experiment [3], 1.1 µM; in experiment [4] it was 2.5 µM.

In the case of `CS(=O)(=O)Nc1ccc2cc(C(=O)Nc3cc(OCC(F)F)cc(C(F)(F)c4cccc(C#N)c4)c3)[nH]c2c1` [Example 391, N-(3-((3-cyanophenyl)difluoromethyl)-5-(2,2-difluoroethoxy)phenyl)-6-(methylsulfonamido)-1H-indole-2-carboxamide], the 50% inhibitory concentration (IC50) in experiment [1] is 2.4 µM; in experiment [2], 18.1 µM; in experiment [3], 3.3 µM; in experiment [4], above 10 µM.

In the case of `CS(=O)(=O)Nc1ccc2cc(C(=O)Nc3cc(OCC#N)cc(C(F)(F)c4cccc(C#N)c4)c3)[nH]c2c1` [Example 393, N-(3-(cyanomethoxy)-5-((3-cyanophenyl)difluoromethyl)phenyl)-6-(methylsulfonamido)-1H-indole-2-carboxamide], the IC50 in experiment [1] is above 10 µM; in experiment [2] it was 10.3 µM; in experiment [3], 5 µM; in experiment [4] it was above 10 µM.

With `CS(=O)(=O)Nc1ccc2cc(C(=O)Nc3cccc(S(=O)(=O)c4ccccc4)c3)[nH]c2c1` [Example 395, 6-(methylsulfonamido)-N-(3-(phenylsulfonyl)phenyl)-1H-indole-2-carboxamide], the IC50 in experiment [1] is 2.1 µM; in experiment [2] it was 20.6 µM; in experiment [3] it was 4.2 µM; in experiment [4] it was above 10 µM.

With `CS(=O)(=O)Nc1ccc2cc(C(=O)Nc3cccc(S(=O)(=O)c4cccc(OC(F)(F)F)c4)c3)[nH]c2c1` [Example 396], the half-inhibitory concentration (IC50) in experiment [1] is 2.5 µM; in experiment [2], 11.8 µM; in experiment [3], 1.2 µM; in experiment [4], 8.9 µM.

Take `COc1cc(NC(=O)c2cc3ccc(NS(C)(=O)=O)cc3[nH]2)cc(S(=O)(=O)c2cccc(OC(F)(F)F)c2)c1` [Example 397, N-(3-methoxy-5-((3-(trifluoromethoxy)phenyl)sulfonyl)phenyl)-6-(methylsulfonamido)-1H-indole-2-carboxamide]: the IC50 is 3 µM in experiment [1], 8.7 µM in experiment [2], 2.8 µM in experiment [3] and 5.8 µM in experiment [4].

For the compound `CS(=O)(=O)Nc1ccc2cc(C(=O)Nc3cc(C(F)(F)F)cc(S(=O)(=O)c4cccc(OC(F)(F)F)c4)c3)[nH]c2c1` [Example 398, 6-(methylsulfonamido)-N-(3-((3-(trifluoromethoxy)phenyl)sulfonyl)-5-(trifluoromethyl)phenyl)-1H-indole-2-carboxamide], the concentration for half-maximal inhibition (IC50) in experiment [1] stood at 1.6 µM; in experiment [2], 5.2 µM; in experiment [3], 1.2 µM; in experiment [4] it was 2.6 µM.

Regarding `CS(=O)(=O)Nc1ccc2cc(C(=O)Nc3cc(C#N)cc(S(=O)(=O)c4cccc(OC(F)(F)F)c4)c3)[nH]c2c1` [Example 399, N-(3-cyano-5-((3-(trifluoromethoxy)phenyl)sulfonyl)phenyl)-6-(methylsulfonamido)-1H-indole-2-carboxamide], the IC50 was 2.8 µM in experiment [1], 13.2 µM in experiment [2], 3.4 µM in experiment [3] and above 10 µM in experiment [4].

Take `CC(C)COc1cc(NC(=O)c2cc3ccc(NS(C)(=O)=O)cc3[nH]2)cc(S(=O)(=O)c2cccc(OC(F)(F)F)c2)c1` [Example 400, N-(3-isobutoxy-5-((3-(trifluoromethoxy)phenyl)sulfonyl)phenyl)-6-(methylsulfonamido)-1H-indole-2-carboxamide]: the half-maximal inhibitory concentration (IC50) in experiment [1] is 3.2 µM; in experiment [2] it was 14.9 µM; in experiment [3] it was 3.5 µM; in experiment [4], above 10 µM.

As to `CS(=O)(=O)Nc1ccc2cc(C(=O)Nc3cc(OCC(F)F)cc(S(=O)(=O)c4cccc(OC(F)(F)F)c4)c3)[nH]c2c1` [Example 401, N-(3-(2,2-difluoroethoxy)-5-((3-(trifluoromethoxy)phenyl)sulfonyl)phenyl)-6-(methylsulfonamido)-1H-indole-2-carboxamide], the IC50 in experiment [1] is 4 µM; in experiment [2], 7.3 µM; in experiment [3], 2.5 µM; in experiment [4], 8 µM.
